“Also recorded” adds a separate entry of the source.
Assays:
Format in all cases: cell-based
Design in all cases: expressed in transfected cells; host or cells: COS 7 (African green monkey kidney, deficient in endogenous GR)
[1] = target: T1, glucocorticoid receptor (Homo sapiens, UniProt P04150); test: Transrepression assay using artificially expressed glucocorticoid receptor and P65 in the COS 7 cell line (NRE luciferase); details: 1, 10 and 100 nM
T1 sequence (P04150 1-777): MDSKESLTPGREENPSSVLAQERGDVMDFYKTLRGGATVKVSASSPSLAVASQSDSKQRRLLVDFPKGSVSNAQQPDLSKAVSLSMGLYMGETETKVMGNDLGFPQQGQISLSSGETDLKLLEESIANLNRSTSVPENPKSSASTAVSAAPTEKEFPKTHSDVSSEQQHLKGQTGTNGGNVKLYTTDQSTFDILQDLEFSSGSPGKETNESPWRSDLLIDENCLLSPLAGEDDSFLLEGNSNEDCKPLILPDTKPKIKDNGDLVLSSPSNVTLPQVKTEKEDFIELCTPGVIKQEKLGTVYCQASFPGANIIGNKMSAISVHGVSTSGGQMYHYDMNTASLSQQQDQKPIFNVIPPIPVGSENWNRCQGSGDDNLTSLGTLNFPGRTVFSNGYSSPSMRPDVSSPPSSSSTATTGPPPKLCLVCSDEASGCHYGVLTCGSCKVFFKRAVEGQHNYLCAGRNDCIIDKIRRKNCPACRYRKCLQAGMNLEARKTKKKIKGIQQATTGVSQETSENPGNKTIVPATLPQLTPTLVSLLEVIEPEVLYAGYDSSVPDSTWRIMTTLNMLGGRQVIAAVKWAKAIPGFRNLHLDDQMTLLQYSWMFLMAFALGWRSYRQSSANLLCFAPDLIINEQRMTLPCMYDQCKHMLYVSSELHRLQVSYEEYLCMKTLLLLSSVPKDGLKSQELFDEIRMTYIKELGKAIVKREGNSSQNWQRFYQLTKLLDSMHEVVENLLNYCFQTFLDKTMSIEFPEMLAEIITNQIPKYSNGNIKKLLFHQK
Experimental: (§1) All transfections were performed using lipofectamine plus (Gibco BRL), according to the manufacturers' instructions, as previously described^1. Briefly, all cells were seeded at 5×10^5 per 10 cm tissue culture plate 18 hours before transfection, the next day the relevant plasmids were mixed with serum free medium and “Plus” reagent (Gibco BRL) and incubated for 15 mins, lipofectamine reagent was added and the mix was incubated for a further 15 mins, this mix was added to the cells on serum free medium in the 10 cm tissue culture plates and left for 3 hours, the cells were then trypsinised and divided into 24 well plates, the cells were left to recover overnight and were treated with steroid for 16 hours before harvest. All experiments were performed from one transfection in triplicate and on separate occasions with similar results.
(§2) The firefly luciferase gene catalyses the production of light from the substrate luciferin. When plasmid constructs containing this gene are transfected into cell lines the activity of the gene can be assessed by the intensity of the luminesence. The luciferase assay yields luminescence through an ATP-dependent oxidation of luciferin the amount of light produced can be measured by a luminometer and is a measure of gene activity (Davis, 1996). Light intensity was measured in a Luminometer (LB 9501, Berthold). The light intensity should be proportional to luciferase concentration in the range of 10^−16M (10 μg/L) to 10^−8M (1 mg/L). To measure the luminescence of the treated cells 150 μl of 1× reporter lysis buffer (RLB: 25 mM Tris phosphate pH7.8, 10 mM MgCl2, 15% Glycerol, 1% Triton, 1 mM EDTA) was added to the 24 well plates to lyse the cells and incubated at room temperature for 30 mins whilst being shaken. Then 100 μl of the room temperature cell extract were mixed with 100 μl of room temperature Luciferase Assay Reagent (LAR: 1 mM ATP, 0.3 mM D-Luciferin, 66% RLB). This reaction was mixed in a luminometer (LB 9501, Berthold) and the light produced was measured for a period of 5 seconds.
To perform this assay the GR and p65 were artificially expressed in a cell line lacking GR and deficient in endogenous P65. The ability of P65 to activate an NFkB response element (NRE) “driving” a luciferase reporter gene could then be repressed by GR in a ligand dependent manner and, therefore, used to measure transrepression.
COS7 cells were transfected with 1 μg pcDNA3-GR and 3 μg NRE-Luc and 200 ng p65 per 10 cm tissue culture dish. The cells were plated out in to 24 well plates after transfection and left for 18 hours to recover before the steroids of FIGS. 1 and 2A were added. After another 18 hour incubation the cells were lysed and a luciferase assay was performed.

[2] = target: T1, glucocorticoid receptor; test: Transactivation assay using artificially expressed glucocorticoid receptor in the COS 7 monkey kidney cell line (GRE luciferase); details: for ability to transactivate (luminescence) compared to dexamethasone: 1, 10 and 100 nM, FIGS. 3 and 4; for transactivation potential (luminescence) compared to dexamethasone, repeat experiment: 1, 10, 10 and 500 nM, FIG. 5
Experimental: as §1, §2
In this assay the GR was artificially expressed in a cell line lacking endogenous GR and a glucocorticoid response element (GRE) “driving” a luciferase reporter gene was used to measure ligand dependent activation.
COS7 cells were transfected with 1 μg pcDNA3-GR and 3 μg AH3-Luc per 10 cm tissue culture dish. The cells were plated out in to 24 well plates after transfection and the steroids were added immediately. After 18 hour incubation the cells were lysed and a luciferase assay was performed.

[3] = target: T1, glucocorticoid receptor; test: Type II antagonist activity assay: competition of dexamethasone transactivation; details: COS7 cells stimulated with 1 nM dexamethasone
Experimental: A type II antagonist should be able to compete agonist activity. As an antagonist has no ability to transactivate, competition can be measured by inhibition of an agonist in a transactivation assay.
As with the standard transactivation assay previously described, the GR was artificially expressed in a cell line lacking endogenous GR and a GRE “driving” a luciferase reporter gene was used to measure ligand dependent activation. COS7 cells were transfected with 1 μg pcDNA3-GR and 3 μg AH3-Luc per 10 cm tissue culture dish. The cells were plated out in to 24 well plates after transfection and the steroids were added immediately. […] Certain steroids from FIG. 2A were added at the same concentration to all sample wells. After 18 hour incubation the cells were lysed and a luciferase assay was performed.

## CC1CC2C3CCC4=CC(=O)C=CC4(C)C3(F)C(O)CC2(C)C12OC(C)(C)OCC2=O (centres unmarked) [Compound A]
[1]
  repression of P65 stimulation of an NFkB response element compared with dexamethasone: less potent than dexamethasone but produced the same maximal response at 100 nM

## CC1CC2C3CCC4=CC(=O)C=CC4(C)C3(F)C(O)CC2(C)C1(O)C(=O)COC(=O)c1ccc(F)cc1 (centres unmarked) [Compound D]
[2]
  ability to transactivate (luminescence) compared to dexamethasone: more active in causing transactivation than dexamethasone
[1]
  repression of P65 stimulation of an NFkB response element compared with dexamethasone: as potent as dexamethasone

## CCCNC(=O)C1(O)C(C)CC2C3CCC4=CC(=O)C=CC4(C)C3(F)C(O)CC21C (centres unmarked) [Compound G]
[2]
  transactivation potential (luminescence) compared to dexamethasone, repeat experiment: “right shifted response” and a reduced maximum compared to dexamethasone; also recorded: lowest overall maximal response
  ability to transactivate (luminescence) compared to dexamethasone: much less potent and had a lower maximal effect when compared to dexamethasone
[1]
  repression of P65 stimulation of an NFkB response element compared with dexamethasone: “left shifted” response and greater maximal repression

## Cc1ccc(NC(=O)C2(O)C(C)CC3C4CCC5=CC(=O)C=CC5(C)C4(F)C(O)CC32C)cc1 (centres unmarked) [Compound O]
[3]
  competition of dexamethasone transactivation: failed to repress dexamethasone transactivation
[2]
  ability to transactivate (luminescence) compared to dexamethasone: failed to generate a response at any concentration
[1]
  repression of P65 stimulation of an NFkB response element compared with dexamethasone: failed completely to repress P65 function

## CCCCCCNC(=O)OCC(=O)C1(O)C(C)CC2C3CCC4=CC(=O)C=CC4(C)C3(F)C(O)CC21C (centres unmarked) [Compound T]
[2]
  transactivation potential (luminescence) compared to dexamethasone, repeat experiment: “right shifted response” and a reduced maximum compared to dexamethasone
[1]
  repression of P65 stimulation of an NFkB response element compared with dexamethasone: “left shifted” response and greater maximal repression

## CC1CC2C3CCC4=CC(=O)C=CC4(C)C3(F)C(O)CC2(C)C1(O)C(=O)NCCCO (centres unmarked) [L]
[3]
  competition of dexamethasone transactivation: failed to repress dexamethasone transactivation
[2]
  ability to transactivate (luminescence) compared to dexamethasone: failed to generate a response at any concentration
[1]
  repression of P65 stimulation of an NFkB response element compared with dexamethasone: failed completely to repress P65 function

## CC1CC2C3CCC4=CC(=O)C=CC4(C)C3(F)C(O)CC2(C)C1(O)C(=O)NCCC(=O)O (centres unmarked) [Q]
[3]
  competition of dexamethasone transactivation: failed to repress dexamethasone transactivation
[2]
  ability to transactivate (luminescence) compared to dexamethasone: failed to generate a response at any concentration
[1]
  repression of P65 stimulation of an NFkB response element compared with dexamethasone: no effect at 1 and 10 nM with only a negligible repression at 100 nM

## CCCOC(=O)C1(O)C(C)CC2C3CCC4=CC(=O)C=CC4(C)C3(F)C(O)CC21C (centres unmarked) [R]
[3]
  competition of dexamethasone transactivation: failed to repress dexamethasone transactivation
[2]
  ability to transactivate (luminescence) compared to dexamethasone: failed to generate a response at any concentration
[1]
  repression of P65 stimulation of an NFkB response element compared with dexamethasone: failed completely to repress P65 function
